Results from patent US8507440B2, “Protein kinase C peptides for use in withdrawal” (The Board of Trustees of the Leland Stanford Junior …, priority 2002, dated 2013).
Ends that are not written are not given here.

How the values were obtained:
[1] = test system: 7 day old and 21 day old rats; experiment: ethanol withdrawal thermal hyperalgesia testing (paw withdrawal latency); assay type: in vivo, rat; conditions: 7 day old rats; intrathecally 4 hours after 4 g/kg 15% EtOH
[2] = test system: isolated spinal cords; experiment: slow ventral root potential (sVRP) of isolated spinal cord, naloxone-precipitated morphine withdrawal hyperresponsiveness; assay type: cell-based, rat
Source text: The slow ventral root potential (sVRP) is an electrophysiolgical measurement of nociceptive-related response in the spinal cord lasting approximately 40 seconds (Yanagisawa et al., Eur. J. Pharmacol., 106:231-239 (1984); Akagi H. et al., British J. Pharmacol., 84:663-673 (1985); Otsuka M. et al., J. Physiol., 395:255-270 (1988)). It is evoked by stimulation of a lumbar dorsal root at an intensity sufficient to activate small diameter afferents that transmit nociceptive (painful) stimuli from the periphery to the spinal cord (Lozier A. P. et al., J. Neurophysiol., 74:1001-1009 (1995)). […] Thus, the sVRP is related to pain, and its exaggeration following naloxone is a manifestation of withdrawal which translates to an increase in pain sensation in vivo.
Spinal cords from 4-7 day old rats (Charles River Laboratories) were removed and arranged for electrophysiological recording of the slow ventral root potentials (sVRP) (Woodley S. J., et al., Brain Res., 559:17-21 (1991). Briefly, pups were decapitated under halothane anesthesia and the spinal cord removed to an oxygenated artificial cerebrospinal fluid solution. A suction stimulating electrode was placed on a lumbar dorsal root and a suction recording electrode on the corresponding ipsilateral ventral root. Square wave stimuli 0.2 ms in duration were administered at a constant frequency of 1/50 seconds throughout the experiment. Test agents were applied and the responses were recorded, digitized, and area under the curve measured.
After a baseline reading of the sVRP, morphine (200 nM) was applied to the isolated spinal cords. The sVRP was again recorded to characterize the response to morphine. Naloxone (200 nM) was then applied and the sVRPs recorded.
FIGS. 2A-2D show the results after application of non-specific PKC antagonist, GF109203X (1.2 μM), and of an inhibitor specific to Ca++-dependent PKC isoforms, Go6976 (1 μM).
FIGS. 3A-3B show the results after application of the εPCK antagonist (εV1-2; SEQ ID NO:1, 2 nM), conjugated to a peptide carrier (Tat; SEQ ID NO:3) and the Tat peptide alone (2 nM; SEQ ID NO:3). FIGS. 3C-3D show the results after application of γPKC (γV5-3; SEQ ID NO:2, 4 nM) conjugated to a peptide carrier (Tat; SEQ ID NO:3) and of the Tat peptide alone (4 nm; SEQ ID NO:3).

[3] = test system: postnatal day 7 rats; experiment: naloxone-precipitated morphine withdrawal, mechanical threshold and thermal paw withdrawal latency in vivo; design: species or system rat; conditions: 10 μM in 5 μl intrathecally prior to morphine 1 mg/kg s.c.; naloxone 0.25 mg/kg 30 min after morphine
Protocol: In vivo studies on opiate withdrawal allodynia and hyperalgesia were conducted using postnatal day 7 rats. As described in Example 2, postnatal day 7 rats were given morphine subcutaneously followed 30 minutes later by naloxone or saline. Mechanical threshold using von Frey filaments to produce the flexion withdrawal response of the hind paw and thermal stimulation to measure the paw withdrawal latency were measured as described in Example 2.
FIG. 5A illustrates a treatment protocol where rat pups were given a PKC antagonist intrathecally (e.g., directly into the cerebrospinal fluid surrounding the spinal cord) prior to subcutaneous morphine delivery. Thirty minutes after morphine delivery, naloxone was administered, followed by mechanical allodynia and thermal hyperalgesia testing (as described in Example 2).
Postnatal day 7 Sprague-Dawley rats (Charles River Laboratories) of both sexes were used. For all behavioural experiments rats were maintained at nesting temperature with overhead heatlamps.
To measure mechanical thresholds, rats were placed on an elevated wire mesh (2 mm openings). Von Frey hairs (Stoelting Co., WoodDale, Ill., USA) were used to elicit a cutaneous flexion withdrawal response as described by Fitzgerald et al. (Fitzgerald M., et al., PAIN […] INFANTS, CHILDREN AND ADOLESCENTS; Schetchter and Yaster, Eds., pp 11-32, Williams and Williams (Baltimore, Md.) (1993). Von Frey hairs of increasing intensity were applied three times to the plantar surface of the left hind paw until a paw withdrawal was elicited. The lowest intensity Von Frey hair required to produce a withdrawal reflex was recorded as the response threshold to a low-intensity mechanical stimulus.
Thermal paw withdrawal latencies were measured using the Ugo Basile Plantar Testing apparatus (Stoelting Co., WoodDale, Ill., USA). Briefly, postnatal day 7 rats were placed under inverted Plexiglas enclosures and the plantar surface of the left hindpaw was heated from below with the IR intensity of the lamp set at 30. Two baseline thermal response latency measures were collected prior to morphine administration with a cut-off of 20 seconds enlisted to prevent tissue damage.
Postnatal day 7 rats were administered 1 mg/kg morphine sulfate (Sigma) subcutaneously in 50 μl saline. Mechanical thresholds were measured 15 minutes later to establish analgesia. Rats were returned to their dam. At 30 or 120 minutes post morphine, rats were administered 0.25 mg/kg naloxone (Sigma) subcutaneously in 50 μl saline. Mechanical thresholds and thermal paw withdrawal latencies were measured in 10 minute intervals. Tat conjugated peptide inhibitors specific to the ε (εV1-2; SEQ ID NO:1, 10 μM) and γ ([…]; SEQ ID NO:2, 10 μM) isoforms of PKC, Tat carrier (10 μM), or saline were administered in 5 μl volumes intrathecally via direct lumbar puncture using a sterile 29 gauge 3/10 cc insulin syringe in rats lightly anesthetized with halothane. To allow for complete recovery from anesthetic, animals were administered peptides or control solutions 30 minutes prior to naloxone.
An unpaired T-test was used to determine the significance of post-naloxone measures from baseline measures. Significance between treatment groups for PKC inhibitor studies both in vivo and in vitro was determined by one way analysis of variance (ANOVA) followed by a post-hoc Bonferroni analysis. P-values<0.05 were considered significant. All statistical analysis was done with GraphPad Prism version 3.02.

With “RLVLAS (also: Tat peptide conjugate; listed as Homo sapiens) [γV5-3]” the “thermal hyperalgesia, paw withdrawal latency” value [1] was “completely prevented thermal hyperalgesia”, the “effect on sVRP of inhibitor alone” value ([2]; absence of morphine) was “did not significantly altered the sVRP” and the “block of naloxone-precipitated withdrawal hyperresponsiveness of sVRP” value ([2]; morphine 200 nM then naloxone 200 nM, GF109203X 1.2 μM, Go6976 1 μM, εV1-2 2 nM, γV5-3 4 nM, Tat 2-4 nM) was “reduced withdrawal hyperresponsiveness, but not to a significantly greater amount than the Tat carrier vehicle alone”. For the same substance, the “block of naloxone-precipitated morphine withdrawal allodynia and hyperalgesia” value [3] was “had a smaller blocking effect”.
